For 5 molecules, IC50 and viability, T/C results are on record in PubChem BioAssay AID2060336 (Molecular Pharmacology Branch, DTP, NCI, 2025).

Values joined by “and” are separate entries in the source; they are usually repeats but may differ in a detail not shown here. Equal entries are not always repeated.

This assay concerns 958767-090-R-J1-PDC spheroid growth. The assay can be described thus: Anticancer human tumor 958767-090-R-J1-PDC patient-derived head and neck squamous carcinoma cell line growth inhibition [IpAb]. The note with it: spheroids with HUVEC and MSC; for viability, T/C: stronger effect = lower value. The method, boiled down:
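Spheroids of 60% malignant cells, 25% HUVEC and 15% MSC were exposed to targeted agents combined with ipatasertib or abemaciclib. Doses started at or near clinical Cmax (10 microM when unknown) and fell in half-log steps.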

The mark [1] stands for this setting: curve of first compound, second compound 0.1 µM.
Setting [2] is: curve of first compound, second compound 0.316 µM.
Setting [3] is: curve of first compound, second compound 1 µM.
The mark [4] stands for this setting: curve of first compound, second compound 3.16 µM.
Setting [5] is: curve of first compound, second compound 10 µM.
[6] abbreviates: second compound 0.1 µM, first compound 0.0316 µM.
The mark [7] stands for this setting: second compound 0.1 µM, first compound 0.1 µM.
Setting [8] is: second compound 0.1 µM, first compound 0.316 µM.
Where [9] appears, read: second compound 0.1 µM, first compound 1 µM.
The mark [10] stands for this setting: second compound 0.316 µM, first compound 0.0316 µM.
Where [11] appears, read: second compound 0.316 µM, first compound 0.1 µM.
Setting [12] is: second compound 0.316 µM, first compound 0.316 µM.
Where [13] appears, read: second compound 0.316 µM, first compound 1 µM.
The mark [14] stands for this setting: second compound 1 µM, first compound 0.0316 µM.
Setting [15] is: second compound 1 µM, first compound 0.1 µM.
Where [16] appears, read: second compound 1 µM, first compound 0.316 µM.
Where [17] appears, read: second compound 1 µM, first compound 1 µM.
The mark [18] stands for this setting: second compound 3.16 µM, first compound 0.0316 µM.
Where [19] appears, read: second compound 3.16 µM, first compound 0.1 µM.
[20] abbreviates: second compound 3.16 µM, first compound 0.316 µM.
Setting [21] is: second compound 3.16 µM, first compound 1 µM.
Setting [22] is: second compound 10 µM, first compound 0.0316 µM.
Where [23] appears, read: second compound 10 µM, first compound 0.1 µM.
Setting [24] is: second compound 10 µM, first compound 0.316 µM.
Setting [25] is: second compound 10 µM, first compound 1 µM.
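Wherever viability, T/C is given: 100% = DMSO vehicle control wells.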

Take `C=CC(=O)N1CCN(c2nc(=O)n(-c3c(C)ccnc3C(C)C)c3nc(-c4c(O)cccc4F)c(F)cc23)C(C)C1` (stereo unspecified) + CC(C)NCC(C(=O)N1CCN(c2ncnc3c2C(C)CC3O)CC1)c1ccc(Cl)cc1: the IC50 was determined as 5020 nM under setting [1]; 1870 nM under setting [2]; 835 nM under setting [3]; 1580 nM under setting [4]; 1050 nM under setting [5]. In addition, the viability, T/C runs as follows: under setting [6], 82%; under setting [7], 86.5%; under setting [8], 84.4%; under setting [9], 86.4%; (second compound 0.1 µM, first compound 3.16 µM) 59.9%; (second compound 0.1 µM, first compound 10 µM) 35.2%. Further, the viability, T/C runs as follows: under setting [10], 78.5%; under setting [11], 71.1%; under setting [12], 72.3%; under setting [13], 54.7%; (second compound 0.316 µM, first compound 3.16 µM) 44.8%; (second compound 0.316 µM, first compound 10 µM) 28.7%. In addition, the viability, T/C was 72.8% under setting [14]; 57.4% under setting [15]; 63.3% under setting [16]; 48.4% under setting [17]; 34% (second compound 1 µM, first compound 3.16 µM); 19.2% (second compound 1 µM, first compound 10 µM). The viability, T/C is 63.9% under setting [18]; 66.9% under setting [19]; 53.8% under setting [20]; 54.5% under setting [21]; 44.9% (second compound 3.16 µM, first compound 3.16 µM); 16% (second compound 3.16 µM, first compound 10 µM). Further, the viability, T/C was 56.2% under setting [22]; 54.6% under setting [23]; 64.9% under setting [24]; 48.1% under setting [25]; 29.6% (second compound 10 µM, first compound 3.16 µM); 5.8% (second compound 10 µM, first compound 10 µM).

As for `Cn1ncc(Cl)c1-c1cc(C(=O)NC(CN)Cc2cccc(F)c2)sc1Cl` (stereo unspecified), the viability, T/C was 81.8% and 95% (compound 0.0316 µM); 73.2% and 88.4% (compound 0.1 µM); 68.2% and 60.5% (compound 0.316 µM); 57.1% and 44.8% (compound 1 µM); 39% and 31.4% (compound 3.16 µM); 0.18% and 0.23% (compound 10 µM). Also, for the setting “curve of compound”, the IC50 is 1540 nM and 837 nM.

Take `C=CC(=O)N1CCN(c2nc(=O)n(-c3c(C)ccnc3C(C)C)c3nc(-c4c(O)cccc4F)c(F)cc23)C(C)C1` (stereo unspecified): the viability, T/C was 99.7% and 95% (compound 0.0316 µM); 93.8% and 88.2% (compound 0.1 µM); 97.1% and 102% (compound 0.316 µM); 94.9% and 107% (compound 1 µM); 83.6% and 75.9% (compound 3.16 µM); 39.8% (compound 10 µM). For the setting “curve of compound”, the IC50 is 7660 nM and 7220 nM.

On to `COc1c(OCCCN2CCOCC2)ccc2c3n(c(=NC(=O)c4cnc(N)nc4)nc12)CCN3` + CC(C)NCC(C(=O)N1CCN(c2ncnc3c2C(C)CC3O)CC1)c1ccc(Cl)cc1, for which the IC50 by setting is: under setting [1], 14.1 nM; under setting [2], 4.43 nM; under setting [3], less than 3.16 nM; under setting [4], less than 3.16 nM; under setting [5], less than 3.16 nM. The viability, T/C is, setting by setting: (second compound 0.1 µM, first compound 0.00316 µM) 78%; (second compound 0.1 µM, first compound 0.01 µM) 55.2%; under setting [6], 36.6%; under setting [7], 22.6%; under setting [8], 9.18%; under setting [9], 4.85%. The viability, T/C (second compound 0.316 µM, first compound 0.00316 µM) is 52.9%; the viability, T/C (second compound 0.316 µM, first compound 0.01 µM) was 43.2%; the viability, T/C under setting [10] is 25.7%; the viability, T/C under setting [11] is 15.6%; the viability, T/C under setting [12] is 6.21%; the viability, T/C under setting [13] is 3.9%. Further, the viability, T/C (second compound 1 µM, first compound 0.00316 µM) was 42.1%; the viability, T/C (second compound 1 µM, first compound 0.01 µM) was 32.6%; the viability, T/C under setting [14] is 26.6%; the viability, T/C under setting [15] is 15.5%; the viability, T/C under setting [16] was 5.63%; the viability, T/C under setting [17] is 3.82%. The viability, T/C is 41.7% (second compound 3.16 µM, first compound 0.00316 µM); 24.8% (second compound 3.16 µM, first compound 0.01 µM); 20.9% under setting [18]; 11.5% under setting [19]; 6.46% under setting [20]; 3.61% under setting [21]. Also, the viability, T/C (second compound 10 µM, first compound 0.00316 µM) was 28.3%; the viability, T/C (second compound 10 µM, first compound 0.01 µM) was 19.8%; the viability, T/C under setting [22] is 14.1%; the viability, T/C under setting [23] is 9.67%; the viability, T/C under setting [24] was 4.23%; the viability, T/C under setting [25] was 3.22%.

Turning to `CC(C)n1nc(-c2ccc3oc(N)nc3c2)c2c(N)ncnc21`, the viability, T/C was 84.9% and 95.3% (compound 0.000316 µM); 89.9% and 94.5% (compound 0.001 µM); 74.5% and 73.8% (compound 0.00316 µM); 55.9% and 54.9% (compound 0.01 µM); 36.9% and 34.2% (compound 0.0316 µM); 39.7% and 32.1% (compound 0.1 µM). In addition, the IC50 (curve of compound) is 13.9 nM and 11.9 nM.

As usually defined, the IC50 is the concentration needed to halve the response being measured. In general, viability, T/C refers to the ratio of treated to control.
